Measurements reported in patent publication US20220323402A1, “TREATMENT, AMELIORATION OR PREVENTION OF A VIRAL INFECTION” (priority 2019, published 2022).

Experiments:
[1] = test system: Pml promoter; assay: PML promoter Gaussia Luciferase reporter assay in HEK-293 cells; assay type: cell-based, human; settings: HEK-293, 24 h post transfection; FIG. 28
Description: FIG. 28: Luciferase assay using a construct coding for the PML promoter cloned upstream of the reporter gene Gaussia Luciferase. HEK-293 cells were pre-treated with CH223191 and transfected with plasmids as indicated. 24 h post transfection, cells were harvested for quantification of Gaussia Luciferase and TK-Renilla activity. Data represent the mean+s.e.m. from three independent experiments. P values were determined by a one-way ANOVA followed by Tukey's post-hoc test.
PML shRNA plasmid (sc-36284-SH) was obtained from Santa Cruz Biotechnology. Transfection of HeLa cells was performed using Lipofectamine 2000 (Thermo Fisher) according to manufacturer's instructions. The plasmid encoding for the promoter region of PML, placed upstream of the Gaussia Luciferase (GLuc) reporter gene, was obtained from Genecopoeia. For the luciferase assay, HEK-293 cells were grown in 96 well-plates and transfected using Fugene-HD Transfection Reagent (Roche). Plasmids used for transfection in each condition are indicated in the experiment. 24 h later, pGudluc activity was analyzed using BioLux Gaussia Luciferase Assay Kit (New England Biolabs) and normalized to TK-Renilla luciferase activity, measured using the Renilla Luciferase Assay System (Promega).

[2] = test system: Cell cultures; assay: Cell viability by MTT assay; assay type: cell-based; settings: at the concentrations tested; FIGS. 9A-9B
Description: FIGS. 9A and 9B: Toxicity of I3S and CH223191. Cell viability after treatment for 24 h with different concentrations of I3S (FIG. 9A) and CH223191 (FIG. 9B) evaluated by MTT assay.
Cell cultures grown in 96-well plates were exposed for 48 h to serial two-fold compound dilutions, three wells for each concentration and viability was measured with 3-(4,5-dimethylthiazol-2-yl)-2,5-diphenyl tetrazolium bromide (MTT, Sigma-Aldrich).

[3] = test system: Pml promoter; assay: ChIP analysis of AHR and NF-κB binding sites in the Pml promoter, ZIKV-infected HepG2 cells; assay type: cell-based, human; settings: 48 h p.i., FIGS. 26A-26D
Description: FIGS. 26A-26D: ChIP analysis of AHR (FIGS. 26A-26C) and NF-KB (FIG. 26D) binding sites in the Pml promoter. 48 h p.i. cells were fixed and ChIP was performed using AHR and NF-KB-specific antibodies or non-specific IgG. Data are mean+s.e.m. and are representative of two independent experiments.
FIG. 27: ChIP analysis of AHR binding to site 2 in Pml promoter. 48 h p.i. cells were fixed and ChIP was performed using AHR and NF-KB-specific antibodies or non-specific IgG. Data are mean+s.e.m. and are representative of two independent experiments
HepG2 cells were mock-infected or infected with ZIKV. 48 h p.i. protein-DNA complexes were cross-linked using 1% paraformaldehyde and lysed with 350 μl lysis buffer (1% SDS, 10 mM EDTA, 50 mM Tris-HCl, pH 8.1 and 1× protease inhibitor cocktail). Chromatin was sheared by sonication, supernatants were collected after centrifugation and diluted in ChIP incubation buffer (1% Triton X-100, 2 mM EDTA, 150 mM NaCl, 20 mM Tris-HCl, pH 8). 5 μg of antibody (anti-AHR or anti-NF-κB p65) was prebound to protein A- and protein G-Dynal magnetic beads (Invitrogen, USA) for 6 h with rotation at 4° C., washed three times with ice-cold 1% BSA in PBS, and finally added to the diluted chromatin. […] DNA fragments were purified with a QIAquick DNA purification kit (Qiagen, USA) and analyzed using the SYBR Green real-time PCR kit (Takara Bio Inc., USA). […]

Q: Which “Pml promoter transactivation by NF-κB in presence of co-expressed AHR” value [1] does the source give for `Cc1ccccc1/N=N/c1ccc(NC(=O)c2ccnn2C)c(C)c1` [CH223191, 2-Methyl-2H-pyrazole-3-carboxylic Acid (2-methyl-4-o-tolylazo-phenyl)-amide] here?
A: rescued

Q: What about the cytotoxic effects [2] of the same compound?
A: no cytotoxic effects were detected

Q: What about the “AHR recruitment to its responsive elements in the Pml promoter” value [3] of the same compound?
A: decreased

Q: What about the “recruitment of NF-κB to its responsive element in the Pml promoter” value [3] of the same compound?
A: increased
